What was measured:
thromboxane receptor = molecular target: T1, thromboxane receptor (Homo sapiens, UniProt P21731); test: test (b): blood platelet aggregation test, U46619-stimulated aggregation of human citrated platelet-rich plasma; type: cell-based; conditions: averaged over several concentrations
T1 construct: human, citrated, platelet-rich plasma; endogenous in cells; host or cells: human platelets in citrated platelet-rich plasma
T1 sequence (P21731 1-343): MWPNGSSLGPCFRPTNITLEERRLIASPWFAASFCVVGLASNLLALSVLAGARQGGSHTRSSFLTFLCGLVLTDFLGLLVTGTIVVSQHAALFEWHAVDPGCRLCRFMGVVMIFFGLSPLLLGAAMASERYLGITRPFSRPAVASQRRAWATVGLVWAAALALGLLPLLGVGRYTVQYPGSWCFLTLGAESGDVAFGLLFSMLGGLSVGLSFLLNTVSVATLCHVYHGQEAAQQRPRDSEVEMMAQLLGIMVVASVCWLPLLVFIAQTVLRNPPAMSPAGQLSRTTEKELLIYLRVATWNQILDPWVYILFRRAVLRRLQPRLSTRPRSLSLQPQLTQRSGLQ
Source text: (b) a blood platelet aggregation test based on that described by Born (Nature, 1962, 194, 927-929) and involving:
(i) aggregating human, citrated, platelet-rich plasma by addition of the TXA2 mimetic agent U46619 so that a dose-response curve is generated;
(ii) generating a dose-response curve for U46619 stimulated platlet aggregation in the presence of increasing amounts of test compound (generally in the range 10^-5 M to 10^-10 M); and
(iii) calculating a KB value indicating potency of TXA2 antagonism for the test compound, averaged over several concentrations, from the calculated 50% response value for U46619 aggregation in the presence and absence of test compound; or […]

TXA2 synthase = molecular target: T2, TXA2 synthase (Homo sapiens, UniProt P24557); test: test (e): human platelet microsomal TXA2 synthase inhibition (conversion of arachidonic acid to TXB2); type: biochemical
T2 construct: human platelet microsomal TXA2 synthase preparation; from tissue; host or cells: human platelet microsomes
T2 sequence (P24557 1-533): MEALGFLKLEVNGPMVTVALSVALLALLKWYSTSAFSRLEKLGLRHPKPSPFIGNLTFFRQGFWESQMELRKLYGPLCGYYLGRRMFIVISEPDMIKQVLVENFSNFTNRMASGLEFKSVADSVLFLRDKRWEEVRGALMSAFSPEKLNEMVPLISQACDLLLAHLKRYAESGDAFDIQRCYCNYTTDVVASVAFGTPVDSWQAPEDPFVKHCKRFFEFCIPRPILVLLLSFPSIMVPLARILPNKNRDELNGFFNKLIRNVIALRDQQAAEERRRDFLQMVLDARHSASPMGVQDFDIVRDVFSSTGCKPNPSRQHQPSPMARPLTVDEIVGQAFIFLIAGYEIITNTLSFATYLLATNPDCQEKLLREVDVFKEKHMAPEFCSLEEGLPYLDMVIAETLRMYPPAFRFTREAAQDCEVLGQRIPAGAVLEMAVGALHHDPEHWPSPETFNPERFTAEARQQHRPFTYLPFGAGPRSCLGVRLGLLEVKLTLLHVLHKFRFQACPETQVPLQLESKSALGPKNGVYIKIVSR

COc1ccc(OC(C)(C)[C@H]2OC[C@@H](C/C=C\CCC(=O)O)[C@@H](c3cccnc3)O2)cc1 (relative stereo) [Example 1, 4(Z)-6[(2,4,5-cis)-2-(1-(4-methoxyphenoxy)-1-methylethyl)-4-(3-pyridyl)-1,3-dioxan-5-yl]-hexenoic acid]
Kb (thromboxane receptor): 0.3 µM
IC50 (TXA2 synthase): 0.04 µM

From patent publication US5053415A, “Pyridine derivatives” (Imperial Chemical Industries PLC, priority 1988, dated 1991)
